The structures appear in SMILES notation. Bounds are passed on as bounds.

What is called MIC is the least concentration at which growth counts as inhibited.

In one series the test system is P. aeruginosa. Nature of the series: Amikacin susceptibility testing (MIC) of P. aeruginosa sputum isolates. It counts as cell-based. The note with it: for MIC: Pseudomonas aeruginosa. Here is the method:
Quantitative culture of sputum samples and subsequent amikacin susceptibility testing of each morphologically distinct P. aeruginosa were performed. The MIC of amikacin for the isolates with the highest MIC cultured from each subject at screening and Day 14 was documented. The density (CFU per gram of sputum) of P. aeruginosa in sputum was calculated as the log10 value for the sum of all morphotypes.

Series [1] concerns P. aeruginosa strain (mucoid strain 3064). Put plainly: Rat model of chronic pulmonary infection with Pseudomonas (agar beads). It counts as in vivo, rats.
The conditions of series [2]: rat, in vivo.
A short description of series [3]: Preclinical pharmacokinetics after inhalation in rats. Conditions: equal dose by inhalation.

For `NCC[C@H](O)C(=O)N[C@@H]1C[C@H](N)[C@@H](O[C@H]2O[C@H](CN)[C@@H](O)[C@H](O)[C@H]2O)[C@H](O)[C@H]1O[C@H]1O[C@H](CO)[C@@H](O)[C@H](N)[C@H]1O` [amikacin], the MIC in the series with P. aeruginosa (0 h, Study 1, baseline (Day 0)) worked out at 8 µg/mL; in the series on P. aeruginosa (336 h, Study 1, Day 14), 30.8 µg/mL; with P. aeruginosa (Study 2, baseline) it was 41 µg/mL. Moreover, in the series on P. aeruginosa (Study 1, baseline (Day 0)), the “mean MIC of amikacin for P. aeruginosa isolates” value came out at 8.04 µg/mL.

`NC[C@H]1O[C@H](O[C@H]2[C@H](O)[C@@H](O[C@H]3O[C@H](CO)[C@@H](O)[C@H](N)[C@H]3O)[C@H](N)C[C@@H]2N)[C@H](N)C[C@@H]1O` [tobramycin]: the bacteria in lungs entry in series [1] (60 mg/kg (given twice per day) daily for 28 days) is reported as “below the limit of detection”. In addition, in series [1] (BID for 14 days, 30 mg/kg per dose), the “bacterial density (log10CFU/lung) vs saline control” value is “significant reduction”. Moreover, in series [2], the “time to undetectable lung levels after cessation of administration” value was ≤ 6 h. In addition, the “AUC of drug in the kidneys vs Liposomal Amikacin aerosol” value in series [3] is “significantly higher”.
